Data on two molecules can be found in patent publication US20240189287A1, “PERIPHERALLY RESTRICTED CB1 RECEPTOR BLOCKERS AND USES THEREOF” (BIONANOSIM (BNS) LTD, priority 2021, published 2024).

Where two headings read alike, the source gives them in different places.

As usually defined, the IC50 is the point on the concentration scale where inhibition reaches its midpoint. Usually Papp stands for the rate of passage across a membrane or cell layer, normalised by area and donor concentration.

One data set has as its target CYP3A4 (Homo sapiens (Human), UniProt P08684). The data set is described as follows: CYP inhibition in human liver microsomes. Format: in vitro ADME. The settings on record: for IC50: fifth value column, read-out: IC50 (μM) CYP 3A4. As for the experimental part: (§1) To evaluate the in vitro CYP inhibition of BNS808 and BNS822, the compounds were tested in human liver microsomes that are rich in drug metabolizing enzymes, including CYPs 1A2, 2C9, 2C19, 2D6, 3A4.
A general note: Microsomes from liver hold many membrane-bound enzymes, among them those of drug oxidation.

The target in a further data set is CYP 1A2 (Homo sapiens (Human), UniProt P05177). The data set is described as follows: CYP inhibition in human liver microsomes. Format: in vitro ADME. As for the experimental part: as §1
The target in the next data set is CYP2C9 (Homo sapiens (Human), UniProt P11712). The data set is described as follows: CYP inhibition in human liver microsomes. Format: in vitro ADME. As for the experimental part: as §1
The target in the next data set is CYP2C19 (Homo sapiens (Human), UniProt P33261). The data set is described as follows: CYP inhibition in human liver microsomes. Format: in vitro ADME. As for the experimental part: as §1
For the next data set, the target named is CYP 2D6 (Homo sapiens (Human), UniProt P10635). The data set is described as follows: CYP inhibition in human liver microsomes. Format: in vitro ADME. Here is the method:
as §1

Data set [1] has as its system C57Bl/6J mice. The data set is described as follows: Inhibition of HU210-induced hypomotility. Format: in vivo. Conditions: HU210 30 μg/kg IP 30 min after. From the text: (§2) Locomotor activity: Locomotor activity was quantified by the number of disruptions of infrared XYZ beam arrays with a beam spacing of 0.25 cm in the Promethion High-Definition Behavioral Phenotyping System (Sable Instruments, Inc., Las Vegas, NV, USA).
(§3) The ability of BNS822 and BNS808 to induce CNS-mediated hyperactivity was further evaluated in a mouse model, using rimonabant (a brain penetrant CB1 receptor blocker) as a positive control. Mice (wild-type male C57Bl/6J) received a single dose of rimonabant (10 mg/kg IP), BNS822 (20 mg/kg PO) BNS 808 (1, 10 mg/kg PO) or vehicle; ambulatory activity was measured by the Promethion Metabolic System (Sable Instruments, Inc). In the same experimental scheme, BNS822, BNS808 and rimonabant were further studied regarding the potential to inhibit the hypomotility-induced by a CB1 receptor agonist, HU210, after a single dose of rimonabant (10 mg/kg IP), BNS822 (20 mg/kg PO) BNS808 (1, 10 mg/kg PO) or vehicle and a single dose of HU210 (30 μg/kg IP) 30 min after.

The next data set relates to HepG2 Cells. The data set is described as follows: Cell Viability Assay in HepG2 Cells at 72 h. In kind it is cell-based, human. Conditions: Homo sapiens, HepG2, 72 h. Here is the method: The liver plays a central role in transforming and clearing chemicals, and therefore is susceptible to toxicity of these agents. BNS808, BNS822 and other selected compounds were tested in the HepG2 assay using […] to evaluate cytotoxicity.

Data set [2] has as its system C57Bl/6J mice. The data set is described as follows: CNS-mediated hyperactivity, locomotor activity (Promethion). Format: in vivo. The settings on record: wild-type male C57Bl/6J mice.
Excerpt: as §2, §3

Another data set has as its system P-gp (MDR1, ABCB1). The data set is described as follows: MDR1-MDCK II cell permeation assay (bi-directional permeability, P-gp efflux). Format: in vitro ADME. Conditions: dog, MDCK-MDR1, pH 7.4. As for the experimental part: (§4) Test and reference compounds were diluted with transport buffer (HBSS with 10 mM Hepes, pH 7.4) from stock solution to a concentration of 2 μM (DMSO<1%) and applied to the apical or basolateral side of the cell monolayer. Permeation of the test compounds from A to B direction or B to A direction was determined in duplicate with/without P-gp inhibitor (GF120918, 10 μM). […] The plate was incubated for 2.5 hours in CO2 incubator at 37±1° C., with 5% CO2 at saturated humidity without shaking. In addition, the efflux ratio of each compound was also determined. Test and reference compounds were quantified by LC-MS/MS analysis based on the peak area ratio of analyte/IS.
(§5) The in vitro bi-directional permeability across MDR1-MDCKII cells including P-glycoprotein (Pgp, ABCB1) efflux in the presence and absence of a P-gp inhibitor is an indicator as to the tendency of an orally administered compound to penetrate the brain.

In the next data set the test system is MDR1-MDCKII cells. The data set is described as above. Format: in vitro ADME. As for the experimental part:
as §4, §5

Chain of CYP2C19 (P33261 whole entry): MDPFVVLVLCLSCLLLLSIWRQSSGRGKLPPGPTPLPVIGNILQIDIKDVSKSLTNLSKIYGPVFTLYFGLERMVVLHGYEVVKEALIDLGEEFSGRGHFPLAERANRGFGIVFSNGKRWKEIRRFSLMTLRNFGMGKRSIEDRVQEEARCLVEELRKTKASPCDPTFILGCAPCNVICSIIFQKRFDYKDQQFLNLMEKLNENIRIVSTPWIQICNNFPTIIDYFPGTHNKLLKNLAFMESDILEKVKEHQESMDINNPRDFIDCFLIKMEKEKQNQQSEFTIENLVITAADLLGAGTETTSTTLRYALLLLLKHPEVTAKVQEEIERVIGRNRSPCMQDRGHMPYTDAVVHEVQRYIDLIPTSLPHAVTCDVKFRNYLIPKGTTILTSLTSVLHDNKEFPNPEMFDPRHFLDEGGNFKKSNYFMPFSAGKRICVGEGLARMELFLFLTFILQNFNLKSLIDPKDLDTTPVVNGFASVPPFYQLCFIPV
Chain of CYP2C9 (P11712 whole entry): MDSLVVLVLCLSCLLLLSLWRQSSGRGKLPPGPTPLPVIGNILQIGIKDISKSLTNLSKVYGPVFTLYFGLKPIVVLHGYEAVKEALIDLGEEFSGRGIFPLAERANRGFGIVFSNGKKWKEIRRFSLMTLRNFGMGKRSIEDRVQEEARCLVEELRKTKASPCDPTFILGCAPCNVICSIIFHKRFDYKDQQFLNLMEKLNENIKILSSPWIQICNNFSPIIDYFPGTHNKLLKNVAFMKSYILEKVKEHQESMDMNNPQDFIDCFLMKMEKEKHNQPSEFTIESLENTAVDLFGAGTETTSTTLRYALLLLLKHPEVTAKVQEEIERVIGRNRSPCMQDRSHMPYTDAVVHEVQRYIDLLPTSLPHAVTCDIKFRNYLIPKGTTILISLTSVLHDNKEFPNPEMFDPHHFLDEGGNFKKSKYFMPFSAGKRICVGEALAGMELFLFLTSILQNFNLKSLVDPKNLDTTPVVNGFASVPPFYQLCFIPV
Chain of CYP3A4 (P08684 whole entry): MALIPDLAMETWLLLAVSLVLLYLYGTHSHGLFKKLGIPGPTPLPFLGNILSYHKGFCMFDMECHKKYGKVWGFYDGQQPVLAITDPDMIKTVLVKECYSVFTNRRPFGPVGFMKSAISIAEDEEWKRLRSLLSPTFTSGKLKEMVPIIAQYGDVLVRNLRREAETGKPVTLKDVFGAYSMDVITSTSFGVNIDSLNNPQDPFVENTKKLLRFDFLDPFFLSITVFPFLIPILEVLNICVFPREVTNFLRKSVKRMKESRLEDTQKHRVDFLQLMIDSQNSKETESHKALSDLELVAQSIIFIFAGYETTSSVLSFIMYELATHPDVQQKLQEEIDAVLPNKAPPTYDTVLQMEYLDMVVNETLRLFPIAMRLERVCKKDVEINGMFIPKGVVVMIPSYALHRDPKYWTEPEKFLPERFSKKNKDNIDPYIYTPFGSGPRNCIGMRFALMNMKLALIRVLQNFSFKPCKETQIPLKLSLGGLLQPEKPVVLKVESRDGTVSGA
Chain of CYP 2D6 (P10635 whole entry): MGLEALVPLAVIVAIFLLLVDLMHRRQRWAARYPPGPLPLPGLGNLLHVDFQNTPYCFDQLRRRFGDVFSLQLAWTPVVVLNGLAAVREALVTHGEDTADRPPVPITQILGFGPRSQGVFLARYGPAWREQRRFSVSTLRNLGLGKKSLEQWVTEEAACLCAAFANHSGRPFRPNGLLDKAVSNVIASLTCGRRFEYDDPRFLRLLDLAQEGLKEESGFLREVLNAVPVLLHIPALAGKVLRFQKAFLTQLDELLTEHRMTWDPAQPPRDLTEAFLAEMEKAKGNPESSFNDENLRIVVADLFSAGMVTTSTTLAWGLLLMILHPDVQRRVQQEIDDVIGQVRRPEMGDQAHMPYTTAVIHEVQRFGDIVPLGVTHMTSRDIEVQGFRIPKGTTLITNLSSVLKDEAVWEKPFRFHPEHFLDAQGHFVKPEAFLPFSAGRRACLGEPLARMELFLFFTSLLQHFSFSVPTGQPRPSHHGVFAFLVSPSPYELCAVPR
Chain of CYP 1A2 (P05177 whole entry): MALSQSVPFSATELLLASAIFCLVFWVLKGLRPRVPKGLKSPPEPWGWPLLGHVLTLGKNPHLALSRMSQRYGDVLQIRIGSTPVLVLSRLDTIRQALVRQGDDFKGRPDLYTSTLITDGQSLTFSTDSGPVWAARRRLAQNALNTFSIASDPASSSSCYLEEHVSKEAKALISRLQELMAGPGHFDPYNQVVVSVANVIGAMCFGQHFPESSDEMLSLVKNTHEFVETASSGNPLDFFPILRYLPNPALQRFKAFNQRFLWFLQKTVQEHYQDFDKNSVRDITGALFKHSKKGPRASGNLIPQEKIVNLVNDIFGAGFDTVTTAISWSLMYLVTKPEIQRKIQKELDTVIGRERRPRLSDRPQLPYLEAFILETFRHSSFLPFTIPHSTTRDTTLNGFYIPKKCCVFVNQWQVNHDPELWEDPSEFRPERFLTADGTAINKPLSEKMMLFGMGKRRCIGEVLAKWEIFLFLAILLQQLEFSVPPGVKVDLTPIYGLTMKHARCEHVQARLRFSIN

Consider `O=S(=O)(NC1CCCOc2c1nn(-c1ccccc1Cl)c2-c1ccc(Cl)cc1)c1ccc(Cl)cc1` (centres unmarked) [BNS808, 4-chloro-N-[2-(2-chlorophenyl)-3-(4-chlorophenyl)-5,6,7,8-tetrahydrooxepino[3,2-c]pyrazol-8-yl]benzenesulfonamide], for which the “inhibitor grade, CYP3A4(M)” value on CYP3A4 is given as “moderate inhibitor”. Further, the IC50 on CYP3A4 was 2.99 µM; against CYP 1A2 it was more than 50 µM; at CYP2C9 it was 8.33 µM; at CYP2C19 it was 18 µM; against CYP 2D6, more than 50 µM; in the data set on HepG2 Cells (read-out: Absolute IC50 (μM)), 26.2 µM. Besides, the IC50 with HepG2 Cells (read-out: Relative IC50 (μM)) worked out at 16.8 µM. In addition, the “inhibitor grade, CYP2C9” value against CYP2C9 (human liver microsomes) is recorded as “weak-moderate inhibitor”. In addition, at CYP2C19 (human liver microsomes), the “inhibitor grade, CYP2C19” value was “weak-moderate inhibitor”. Further, the “effect on HU210-induced hypomotility” value with C57Bl/6J mice [1] (single dose 1, 10 mg/kg PO) is given as “apparent lack of effects”. Further, the “locomotor activity (CNS-mediated hyperactivity)” value in the data set on C57Bl/6J mice [2] (single dose 1, 10 mg/kg PO) is given as “no locomotor effects”. Also, the efflux ratio at 2.5 h, 2 μM in the data set with P-gp (MDR1, ABCB1) (efflux ratio in the presence of P-gp inhibitor GF120918, read-out: MDR1 B:A/A:B (+P-gp inhibitor)) was found to be 1.88. Also, the “Rank Papp” value in the data set on MDR1-MDCKII cells (MDCK-MDR1) is listed as “Low”. The “MDR1 B:A/A:B” value in the data set on MDR1-MDCKII cells (efflux ratio, without P-gp inhibitor) stood at 3.95.

For the molecule `Cc1ccc(C)c(OCCCC(C)(C)C(=O)NC2CCCOc3c2nn(-c2ccccc2Cl)c3-c2ccc(Cl)cc2)c1` (centres unmarked) [BNS822, N-[2-(2-chlorophenyl)-3-(4-chlorophenyl)-5,6,7,8-tetrahydrooxepino[3,2-c]pyrazol-8-yl]-5-(2,5-dimethylphenoxy)-2,2-dimethyl-pentanamide], the IC50 on CYP3A4 is more than 50 µM; at CYP 1A2 (human liver microsomes, isozyme order of b227, read-out: IC50 (μM) CYP 1A2), more than 50 µM; at CYP2C9 (human liver microsomes, read-out: IC50 (μM) CYP 2C9) it was 8.52 µM; at CYP2C19 (human liver microsomes, read-out: IC50 (μM) CYP 2C19), more than 50 µM; at CYP 2D6 (human liver microsomes, read-out: IC50 (μM) CYP 2D6) it was more than 50 µM; in the data set on HepG2 Cells (read-out: Absolute IC50), more than 100 µM. For the same molecule, in the data set on HepG2 Cells (read-out: Relative IC50), the IC50 was more than 100 µM. Besides, the “inhibitor grade, CYP2C9” value against CYP2C9 (human liver microsomes) is reported as “weak-moderate inhibitor”. In addition, the “effect on HU210-induced hypomotility” value with C57Bl/6J mice [1] (single dose 20 mg/kg PO) was “apparent lack of effects”. Also, the “locomotor activity (CNS-mediated hyperactivity)” value in the data set on C57Bl/6J mice [2] (single dose 20 mg/kg PO) was “no locomotor effects”. The apparent permeability coefficient (Papp) at 2.5 h, 2 μM with P-gp (MDR1, ABCB1) (2 μM, A to B, 2.5 hours) was less than 0.02 ×10⁻⁶ cm/s. Besides, in the data set with P-gp (MDR1, ABCB1) (efflux ratio, without P-gp inhibitor, read-out: MDR1 B:A/A:B), the efflux ratio at 2.5 h, 2 μM is more than 3.62. Also, the P-gp substrate result with MDR1-MDCKII cells is “P-gp substrates and Yes”. Further, the “Rank Papp” value with MDR1-MDCKII cells is listed as “Low”.
